In ChEMBL document CHEMBL5550212, “Structural and Physicochemical Features of Oral PROTACs” (J Med Chem, 2024):

Columns and labels:
[1] = Oral bioavailability in C57BL/6 mouse at 1 mg/kg measured upto 24 hrs by LC-MS/MS analysis; type: ADME, organism-based; details: in vivo
[2] = target: T1, Estrogen receptor (Homo sapiens) (UniProt P03372); experiment: Induction of ERalpha degradation in human MCF7 cells relative to control; type: cell-based
T1 sequence (whole entry): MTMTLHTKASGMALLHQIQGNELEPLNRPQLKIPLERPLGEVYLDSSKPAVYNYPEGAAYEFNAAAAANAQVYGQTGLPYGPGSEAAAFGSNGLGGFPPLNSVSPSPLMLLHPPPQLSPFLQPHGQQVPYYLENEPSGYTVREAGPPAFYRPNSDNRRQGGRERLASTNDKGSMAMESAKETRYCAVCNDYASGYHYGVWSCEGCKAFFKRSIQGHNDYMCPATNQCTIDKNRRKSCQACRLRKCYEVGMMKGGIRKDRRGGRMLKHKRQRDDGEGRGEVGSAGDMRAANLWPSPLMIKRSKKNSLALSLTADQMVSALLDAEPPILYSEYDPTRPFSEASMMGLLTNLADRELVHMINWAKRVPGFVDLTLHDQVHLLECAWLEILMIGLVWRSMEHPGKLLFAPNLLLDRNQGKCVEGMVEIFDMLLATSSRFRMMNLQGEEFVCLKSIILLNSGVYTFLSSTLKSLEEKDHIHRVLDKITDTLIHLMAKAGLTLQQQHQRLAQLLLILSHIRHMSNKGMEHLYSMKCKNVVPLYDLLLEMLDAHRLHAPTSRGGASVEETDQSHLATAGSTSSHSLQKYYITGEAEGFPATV

[3] = Chromatographic hydrophobicity index, logD of the compound; type: physicochemical
[4] = Clearance in C57BL/6 mouse at 1 mg/kg, po measured upto 24 hrs by LC-MS/MS analysis; type: ADME, organism-based; details: in vivo
Estrogen receptor = target: T2, Estrogen receptor (Homo sapiens, UniProt P03372); experiment: Induction of ERalpha degradation in human MCF7 cells; type: cell-based
T2 sequence (P03372 whole entry): T1 sequence (whole entry)

[5] = target: T3, Androgen receptor (Homo sapiens) (UniProt P10275); experiment: Induction of AR degradation in human LNCaP cells relative to control; type: cell-based
T3 sequence (whole entry): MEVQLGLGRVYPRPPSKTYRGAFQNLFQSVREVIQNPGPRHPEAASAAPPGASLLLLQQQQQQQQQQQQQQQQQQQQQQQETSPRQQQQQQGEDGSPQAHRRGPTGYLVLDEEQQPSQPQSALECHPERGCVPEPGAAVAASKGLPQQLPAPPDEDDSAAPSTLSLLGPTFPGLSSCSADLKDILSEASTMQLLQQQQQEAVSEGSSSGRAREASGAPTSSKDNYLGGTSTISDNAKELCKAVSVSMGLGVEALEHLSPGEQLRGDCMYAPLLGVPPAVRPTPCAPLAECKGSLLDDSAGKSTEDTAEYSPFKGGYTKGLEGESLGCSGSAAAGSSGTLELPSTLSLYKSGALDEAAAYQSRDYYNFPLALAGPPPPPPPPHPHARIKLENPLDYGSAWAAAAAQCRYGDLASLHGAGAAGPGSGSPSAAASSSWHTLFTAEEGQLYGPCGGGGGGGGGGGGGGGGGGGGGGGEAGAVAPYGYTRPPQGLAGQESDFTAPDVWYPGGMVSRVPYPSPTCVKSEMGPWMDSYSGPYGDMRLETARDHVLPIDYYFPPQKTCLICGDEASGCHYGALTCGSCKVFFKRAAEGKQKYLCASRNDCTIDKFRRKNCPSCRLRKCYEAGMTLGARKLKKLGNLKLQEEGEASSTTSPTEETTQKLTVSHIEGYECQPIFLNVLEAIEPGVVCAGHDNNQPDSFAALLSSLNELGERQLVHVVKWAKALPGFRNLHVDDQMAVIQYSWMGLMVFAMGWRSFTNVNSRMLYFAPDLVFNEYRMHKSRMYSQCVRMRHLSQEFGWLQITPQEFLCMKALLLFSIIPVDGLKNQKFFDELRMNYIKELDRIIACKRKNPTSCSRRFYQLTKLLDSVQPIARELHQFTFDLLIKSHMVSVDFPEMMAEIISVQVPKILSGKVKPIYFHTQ

Androgen receptor [6] = target: T4, Androgen receptor (Homo sapiens, UniProt P10275); experiment: Induction of AR degradation in human LNCaP cells; type: cell-based
T4 sequence (P10275 whole entry): T3 sequence (whole entry)

[7] = Drug uptake in mouse plasma at 30 mg/kg, po; type: ADME, organism-based; details: in vivo
[8] = Drug uptake in mouse plasma at 60 mg/kg, po; type: ADME, organism-based; details: in vivo
Androgen receptor [9] = target: T4, Androgen receptor; experiment: Induction of AR degradation in human VCaP cells; type: cell-based
[10] = target: T3, Androgen receptor (Homo sapiens); experiment: Induction of AR degradation in human VCaP cells relative to control; type: cell-based
[11] = Clearance in Han Wistar rat at 1 mg/kg, po measured upto 24 hrs by LC-MS/MS analysis; type: ADME, organism-based; details: in vivo
[12] = Lipophilicity, logD of the compound at pH 7.4 by shake-flask assay; type: physicochemical; details: buffer
[13] = Volume of distribution at steady state in C57BL/6 mouse at 1 mg/kg, po measured upto 24 hrs by LC-MS/MS analysis; type: ADME, organism-based; details: in vivo
[14] = Oral bioavailability in Beagle dog at 1 mg/kg measured upto 24 hrs by LC-MS/MS analysis; type: ADME, organism-based, Canis lupus familiaris; details: in vivo
[15] = Clearance in Beagle dog at 1 mg/kg, po measured upto 24 hrs by LC-MS/MS analysis; type: ADME, organism-based, Canis lupus familiaris; details: in vivo
[16] = Oral bioavailability in Han Wistar rat at 1 mg/kg measured upto 24 hrs by LC-MS/MS analysis; type: ADME, organism-based; details: in vivo
[17] = Half-life in Han Wistar rat at 1 mg/kg, po measured upto 24 hrs by LC-MS/MS analysis; type: ADME, organism-based; details: in vivo
[18] = Volume of distribution at steady state in Han Wistar rat at 1 mg/kg, po measured upto 24 hrs by LC-MS/MS analysis; type: ADME, organism-based; details: in vivo
[19] = Half-life in C57BL/6 mouse at 1 mg/kg, po measured upto 24 hrs by LC-MS/MS analysis; type: ADME, organism-based; details: in vivo
[20] = Volume of distribution at steady state in Beagle dog at 1 mg/kg, po measured upto 24 hrs by LC-MS/MS analysis; type: ADME, organism-based, Canis lupus familiaris; details: in vivo
[21] = Half-life in Beagle dog at 1 mg/kg, po measured upto 24 hrs by LC-MS/MS analysis; type: ADME, organism-based, Canis lupus familiaris; details: in vivo
[22] = Dissociation constant, pKa of the compound; type: physicochemical

`C[C@@H]1Cc2c([nH]c3ccccc23)[C@@H](c2cnc(N3CCC(CCN4CCN(c5ccc6c(c5)CN(C5CCC(=O)NC5=O)C6=O)CC4)CC3)nc2)N1CC(C)(C)F` (stereo not given in full) showed a bioavailability [1] of 15%, an Emax [2] greater than 90% and a CHI [3] of 6.1. The CL/F [4] was 5 mL/min/kg and the IC50 (Estrogen receptor) was no more than 1 nM.

Molecule `Cc1ncsc1-c1ccc([C@H](C)NC(=O)[C@@H]2C[C@@H](O)CN2C(=O)[C@@H](NC(=O)COCCCCCNc2ccc(C(=O)N[C@H]3C(C)(C)[C@H](Oc4ccc(C#N)c(Cl)c4)C3(C)C)cc2)C(C)(C)C)cc1` has an Emax [5] of 96%, a bioavailability [1] of 2% and a CHI [3] of 5.9. It also gave a CL/F [4] of 4.7 mL/min/kg and a DC50 (Androgen receptor [6]) of 6 nM.

For `Cc1ncsc1-c1ccc([C@H](CC[C@H](C)CCN2CCC(c3ccc4c(c3)n3c5cccc(Br)c5c(=O)nc3n4C3CCCC3)CC2)NC(=O)[C@@H]2C[C@@H](O)CN2C(=O)[C@@H](NC(=O)C2(F)CC2)C(C)(C)C)cc1`, the Drug uptake [7] was “Active”.

In the case of `C[C@@H]1Cc2c([nH]c3ccccc23)[C@@H](c2cnc(N3CCC(CN(C)C4CCN(c5ccc6c(c5)CN(C5CCC(=O)NC5=O)C6=O)CC4)CC3)nc2)N1CC(C)(C)F` (stereo not given in full), the bioavailability [1] is reported as 12%, the Emax [2] is reported as greater than 90% and the CHI [3] is reported as 5.6. The CL/F [4] was 19.3 mL/min/kg and the IC50 (Estrogen receptor) was no more than 1 nM.

In the case of `Cc1ncsc1-c1ccc(CNC(=O)[C@@H]2C[C@@H](O)CN2C(=O)[C@@H](NC(=O)CCCCCCCCCCNC(=O)O[C@H]2C[C@@H](C)C=C3C=C[C@H](C)[C@H](CC[C@@H]4C[C@@H](O)CC(=O)O4)[C@H]32)C(C)(C)C)cc1`, the Drug uptake [8] is reported as “Active”.

Work on `C[C@@H]1Cc2c([nH]c3ccccc23)[C@@H](c2cnc(N3CCC(CNC4CCN(c5ccc6c(c5)CN(C5CCC(=O)NC5=O)C6=O)CC4)CC3)nc2)N1CC(C)(C)F` (stereo not given in full) yielded a bioavailability [1] of less than 1%, an Emax [2] greater than 90% and a CHI [3] of 4.7. It also gave a CL/F [4] of 26.6 mL/min/kg and an IC50 (Estrogen receptor) of no more than 1 nM.

For `C[C@@H]1Cc2c([nH]c3ccccc23)[C@@H](c2cnc(N3CCC(NC4CCN(c5ccc6c(c5)CN(C5CCC(=O)NC5=O)C6=O)CC4)CC3)nc2)N1CC(C)(C)F` (stereo not given in full), the bioavailability [1] was less than 1%, the Emax [2] was greater than 90% and the CHI [3] was 4.6. The CL/F [4] was 51.4 mL/min/kg and the IC50 (Estrogen receptor) was no more than 1 nM.

`C[C@@H]1Cc2c([nH]c3ccccc23)[C@@H](c2cnc(N3CCC(CN4CCN(c5ccc6c(c5)CN(C5CCC(=O)NC5=O)C6=O)CC4)CC3)nc2)N1CC(C)(C)F` (stereo not given in full) showed a bioavailability [1] of 45%, an Emax [2] greater than 90% and a CHI [3] of 6.1. It also gave a CL/F [4] of 6.1 mL/min/kg and an IC50 (Estrogen receptor) of no more than 1 nM.

`COc1cc(O[C@H]2C(C)(C)[C@H](NC(=O)c3ccc(N4CCC(CN5CCN(c6ccc(C(=O)N[C@@H]7CCC(=O)NC7=O)c(F)c6)CC5)CC4)cc3)C2(C)C)ccc1C#N` gave a DC50 (Androgen receptor [9]) of 1 nM and an Emax [10] of less than 50%.

`C[C@@H]1Cc2c(n(C)c3ccccc23)[C@@H](c2cnc(N3CCC(CCN4CCN(c5ccc6c(c5)CN(C5CCC(=O)NC5=O)C6=O)CC4)CC3)nc2)N1CC(C)(C)F` (mixture of isomers) gave a bioavailability [1] of 38%, a CHI [3] of 7 and a CL/F [4] of 5.3 mL/min/kg.

With `N#Cc1ccc(O[C@H]2CC[C@H](NC(=O)c3ccc(N4CCC(CN5CCN(c6cc7c(cc6F)C(=O)N(C6CCC(=O)NC6=O)C7=O)CC5)CC4)nn3)CC2)cc1Cl` (stereo not given in full) [BAVDEGALUTAMIDE] the CL/F [11] was 9 mL/min/kg, the bioavailability [1] was 65% and the logD [12] was 4.8. It also gave a Vdss [13] of 3.8 L/kg, a CHI [3] of 5.1 and a bioavailability [14] of 14%. It also gave a CL/F [15] of 4.7 mL/min/kg, a CL/F [4] of 3.9 mL/min/kg and a bioavailability [16] of 51%. For the same molecule, the half-life [17] was 558 min, the Vdss [18] was 7.8 L/kg and the half-life [19] was 780 min. The Vdss [20] was 13 L/kg and the half-life [21] was 1920 min.

Work on `Cn1c(=O)n(C2CCC(=O)NC2=O)c2cccc(C#CCOC3CCN(C[C@H]4CC[C@H](n5cc(NC(=O)c6cnn7ccc(N8C[C@H]9C[C@@H]8CO9)nc67)c(C(F)F)n5)CC4)CC3)c21` (stereo not given in full) [KT-474] yielded a CL/F [11] of 51 mL/min/kg, a bioavailability [1] of 24% and a logD [12] of 3.6. It also gave a Vdss [13] of 2.7 L/kg, a CHI [3] of 2.3 and a bioavailability [14] of 51%. It also gave a CL/F [15] of 16 mL/min/kg, a CL/F [4] of 17 mL/min/kg and a bioavailability [16] of 7%. The pKa [22] was 8.5, the Vdss [18] was 7.7 L/kg and the Vdss [20] was 6.7 L/kg.

With `COc1cc(O[C@H]2C(C)(C)[C@H](NC(=O)c3ccc(N4CCC(CN5CCN(c6ccc(C(=O)N[C@H]7CCC(=O)NC7=O)c(F)c6)CC5)CC4)cc3)C2(C)C)ccc1C#N` [LUXDEGALUTAMIDE] the CL/F [11] was 16 mL/min/kg, the bioavailability [1] was 58% and the logD [12] was 4.7. It also gave a Vdss [13] of 2.3 L/kg, a CHI [3] of 5 and a bioavailability [14] of 33%. The CL/F [15] was 6.4 mL/min/kg, the DC50 (Androgen receptor [9]) was less than 1 nM and the CL/F [4] was 4.2 mL/min/kg. The bioavailability [16] was 38%, the half-life [17] was 444 min and the Vdss [18] was 9.1 L/kg. For the same molecule, the half-life [19] was 408 min, the Vdss [20] was 15 L/kg and the Emax [10] was greater than 70%. The half-life [21] was 1860 min.

Molecule `O=C1CC[C@H](N2Cc3cc(N4CCN(CC5CCN(c6ccc([C@@H]7c8ccc(O)cc8CC[C@@H]7c7ccccc7)cc6)CC5)CC4)ccc3C2=O)C(=O)N1` [VEPDEGESTRANT] has a CL/F [11] of 28 mL/min/kg, a bioavailability [1] of 59% and a logD [12] of 4.6. It also gave a CHI [3] of 5.3, a bioavailability [14] of 5% and a CL/F [15] of 3 mL/min/kg. For the same molecule, the CL/F [4] was 35 mL/min/kg, the bioavailability [16] was 24% and the half-life [17] was 900 min. For the same molecule, the half-life [19] was 372 min and the half-life [21] was 660 min.
